Measured values as given in ChEMBL document CHEMBL4507327 (2021).

Key:
Rattus norvegicus = organism: Rattus norvegicus; assay: Inhibition of Glutamate, NMDA, Phencyclidine at 10 µM in the Eurofins-Panlabs radioligand binding assay (Eurofins_assay_233000); assay type: protein-complex assay; settings: Compound concentration 10.0 uM
[1] = biological target: D(1B) dopamine receptor (Homo sapiens) (UniProt P21918); assay: Dopamine D5 Eurofins-Panlabs radioligand binding assay; settings: Compound concentration 10.0 uM
Chain of D(1B) dopamine receptor (Homo sapiens) (P21918 whole entry): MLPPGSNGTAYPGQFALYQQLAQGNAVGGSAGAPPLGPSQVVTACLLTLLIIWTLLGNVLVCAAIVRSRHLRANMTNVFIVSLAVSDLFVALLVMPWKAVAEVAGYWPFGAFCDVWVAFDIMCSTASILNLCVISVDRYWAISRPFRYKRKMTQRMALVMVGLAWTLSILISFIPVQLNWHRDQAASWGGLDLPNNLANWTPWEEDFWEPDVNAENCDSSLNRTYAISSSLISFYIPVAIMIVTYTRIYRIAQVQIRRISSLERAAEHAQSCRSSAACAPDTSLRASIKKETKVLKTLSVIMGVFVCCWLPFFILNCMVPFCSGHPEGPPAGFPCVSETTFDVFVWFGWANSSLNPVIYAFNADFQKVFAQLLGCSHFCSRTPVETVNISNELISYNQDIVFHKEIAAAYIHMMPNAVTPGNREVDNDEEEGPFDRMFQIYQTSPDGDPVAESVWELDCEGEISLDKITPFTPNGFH

[2] = biological target: Beta-adrenergic receptor kinase 1 (Homo sapiens, UniProt P25098); assay: BARK1 [GRK2(ADR1LGG5)] Takeda global kinase panel
Chain of Beta-adrenergic receptor kinase 1 (P25098 whole entry): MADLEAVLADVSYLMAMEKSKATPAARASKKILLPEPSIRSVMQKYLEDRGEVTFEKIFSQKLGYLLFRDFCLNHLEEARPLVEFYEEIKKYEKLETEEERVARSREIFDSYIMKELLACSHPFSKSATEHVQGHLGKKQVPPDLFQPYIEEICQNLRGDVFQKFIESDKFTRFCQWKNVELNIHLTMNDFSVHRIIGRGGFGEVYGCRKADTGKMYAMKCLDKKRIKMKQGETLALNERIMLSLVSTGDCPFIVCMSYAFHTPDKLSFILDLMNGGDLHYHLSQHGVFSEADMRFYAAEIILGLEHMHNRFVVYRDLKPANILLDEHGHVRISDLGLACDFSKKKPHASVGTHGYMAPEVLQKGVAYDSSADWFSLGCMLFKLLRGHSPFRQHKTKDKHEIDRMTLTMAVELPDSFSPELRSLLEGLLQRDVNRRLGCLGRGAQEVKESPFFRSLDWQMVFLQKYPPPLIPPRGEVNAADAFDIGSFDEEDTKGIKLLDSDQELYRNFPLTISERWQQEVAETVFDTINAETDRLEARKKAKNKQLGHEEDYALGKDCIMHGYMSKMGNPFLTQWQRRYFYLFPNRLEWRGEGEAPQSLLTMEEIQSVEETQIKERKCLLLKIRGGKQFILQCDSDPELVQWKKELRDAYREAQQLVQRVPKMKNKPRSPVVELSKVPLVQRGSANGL

Aurora kinase B = Aurora kinase B (Homo sapiens, UniProt Q96GD4); assay: AurB [Aur1(AURBPGE1)] Takeda global kinase panel
[3] = biological target: BMP-2-inducible protein kinase (Homo sapiens, UniProt Q9NSY1); assay: BIKE(BM2KLGY1) Takeda global kinase panel
[4] = biological target: Bone morphogenetic protein receptor type-1A (Homo sapiens, UniProt P36894); assay: BMPR1A(BM1APHRG) Takeda global kinase panel
Chain of Bone morphogenetic protein receptor type-1A (P36894 whole entry): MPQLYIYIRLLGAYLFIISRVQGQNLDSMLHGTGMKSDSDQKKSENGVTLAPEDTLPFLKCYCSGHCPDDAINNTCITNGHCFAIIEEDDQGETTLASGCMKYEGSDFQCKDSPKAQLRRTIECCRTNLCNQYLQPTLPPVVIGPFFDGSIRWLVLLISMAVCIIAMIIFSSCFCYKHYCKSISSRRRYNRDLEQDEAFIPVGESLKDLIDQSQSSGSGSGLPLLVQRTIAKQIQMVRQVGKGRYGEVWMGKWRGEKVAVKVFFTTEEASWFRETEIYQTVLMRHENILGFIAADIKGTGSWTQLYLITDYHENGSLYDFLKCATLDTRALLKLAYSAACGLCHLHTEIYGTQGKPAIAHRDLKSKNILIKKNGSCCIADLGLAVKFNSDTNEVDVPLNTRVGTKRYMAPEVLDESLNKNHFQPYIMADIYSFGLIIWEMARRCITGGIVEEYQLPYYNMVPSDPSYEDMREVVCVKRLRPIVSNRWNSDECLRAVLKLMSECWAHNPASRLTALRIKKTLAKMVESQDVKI

[5] = biological target: Bone morphogenetic protein receptor type-1B (Homo sapiens, UniProt O00238); assay: BMPR1B(BM1BLGF1) Takeda global kinase panel
[6] = biological target: Cyclin-dependent kinase 2 (Homo sapiens, UniProt P24941); assay: CDK2(CDK2CGS1) Takeda global kinase panel
[7] = biological target: Dual specificity protein kinase CLK2 (Homo sapiens, UniProt P49760); assay: CLK2(CLK2LGF1) Takeda global kinase panel
[8] = biological target: Casein kinase I isoform epsilon (Homo sapiens, UniProt P49674); assay: CK1epsilon(CS1ELGI5) Takeda global kinase panel
[9] = biological target: Casein kinase II subunit alpha (Homo sapiens, UniProt P68400); assay: CK2alpha1(C2A1LGF1) Takeda global kinase panel
[10] = biological target: Death-associated protein kinase 2 (Homo sapiens, UniProt Q9UIK4); assay: DAPK2(DAP2LGF1) Takeda global kinase panel
[11] = biological target: Dual specificity tyrosine-phosphorylation-regulated kinase 2 (Homo sapiens, UniProt Q92630); assay: DYRK2(DYR2LGY1) Takeda global kinase panel
[12] = biological target: Epidermal growth factor receptor (Homo sapiens, UniProt P00533); assay: EGFR(EGFRMGB1) Takeda global kinase panel
eIF-2-alpha kinase GCN2 = eIF-2-alpha kinase GCN2 (Homo sapiens, UniProt Q9P2K8); assay: GCN2(EIK4PHK1) Takeda global kinase panel
Ephrin type-A receptor 3 = Ephrin type-A receptor 3 (Homo sapiens, UniProt P29320); assay: EphA3(EPA3LGD5) Takeda global kinase panel
Ephrin type-A receptor 6 = Ephrin type-A receptor 6 (Homo sapiens, UniProt Q9UF33); assay: EphA6(EPA6LGI5) Takeda global kinase panel
Ephrin type-B receptor 1 = Ephrin type-B receptor 1 (Homo sapiens, UniProt P54762); assay: EphB1(EPB1LGY1) Takeda global kinase panel
[13] = biological target: Tyrosine-protein kinase Fes/Fps (Homo sapiens, UniProt P07332); assay: Fes(FES1LHY1) Takeda global kinase panel
[14] = biological target: Vascular endothelial growth factor receptor 1 (Homo sapiens, UniProt P17948); assay: FLT1(FLT1LGC5) Takeda global kinase panel
[15] = biological target: Receptor-type tyrosine-protein kinase FLT3 (Homo sapiens, UniProt P36888); assay: FLT3(FLT3MGE1) Takeda global kinase panel
[16] = biological target: Vascular endothelial growth factor receptor 3 (Homo sapiens, UniProt P35916); assay: FLT4(FLT4LGY1) Takeda global kinase panel
[17] = biological target: Cyclin-G-associated kinase (Homo sapiens, UniProt O14976); assay: GAK(GAK1PGF1) Takeda global kinase panel
[18] = biological target: G protein-coupled receptor kinase 5 (Homo sapiens, UniProt P34947); assay: GRK5(GRK5LGP1) Takeda global kinase panel
[19] = biological target: Insulin-like growth factor 1 receptor (Homo sapiens, UniProt P08069); assay: IGF1R(IGF1LGF1) Takeda global kinase panel
[20] = biological target: Tyrosine-protein kinase ITK/TSK (Homo sapiens, UniProt Q08881); assay: ITK(ITK1CGF1) Takeda global kinase panel
[21] = biological target: Serine/threonine-protein kinase LATS2 (Homo sapiens, UniProt Q9NRM7); assay: LATS2(LAT2LGY1) Takeda global kinase panel
[22] = biological target: Mitogen-activated protein kinase 12 (Homo sapiens, UniProt P53778); assay: p38gamma(MP12LGP1) Takeda global kinase panel
[23] = biological target: Microtubule-associated serine/threonine-protein kinase 4 (Homo sapiens, UniProt O15021); assay: MAST4(MAS4LGRD) Takeda global kinase panel
[24] = biological target: Myosin light chain kinase, smooth muscle (Homo sapiens, UniProt Q15746); assay: smMLCK(MYL1LGF1) Takeda global kinase panel
[25] = biological target: Serine/threonine-protein kinase PLK4 (Homo sapiens, UniProt O00444); assay: PLK4(PLK4LGF1) Takeda global kinase panel
Chain of Serine/threonine-protein kinase PLK4 (O00444 whole entry): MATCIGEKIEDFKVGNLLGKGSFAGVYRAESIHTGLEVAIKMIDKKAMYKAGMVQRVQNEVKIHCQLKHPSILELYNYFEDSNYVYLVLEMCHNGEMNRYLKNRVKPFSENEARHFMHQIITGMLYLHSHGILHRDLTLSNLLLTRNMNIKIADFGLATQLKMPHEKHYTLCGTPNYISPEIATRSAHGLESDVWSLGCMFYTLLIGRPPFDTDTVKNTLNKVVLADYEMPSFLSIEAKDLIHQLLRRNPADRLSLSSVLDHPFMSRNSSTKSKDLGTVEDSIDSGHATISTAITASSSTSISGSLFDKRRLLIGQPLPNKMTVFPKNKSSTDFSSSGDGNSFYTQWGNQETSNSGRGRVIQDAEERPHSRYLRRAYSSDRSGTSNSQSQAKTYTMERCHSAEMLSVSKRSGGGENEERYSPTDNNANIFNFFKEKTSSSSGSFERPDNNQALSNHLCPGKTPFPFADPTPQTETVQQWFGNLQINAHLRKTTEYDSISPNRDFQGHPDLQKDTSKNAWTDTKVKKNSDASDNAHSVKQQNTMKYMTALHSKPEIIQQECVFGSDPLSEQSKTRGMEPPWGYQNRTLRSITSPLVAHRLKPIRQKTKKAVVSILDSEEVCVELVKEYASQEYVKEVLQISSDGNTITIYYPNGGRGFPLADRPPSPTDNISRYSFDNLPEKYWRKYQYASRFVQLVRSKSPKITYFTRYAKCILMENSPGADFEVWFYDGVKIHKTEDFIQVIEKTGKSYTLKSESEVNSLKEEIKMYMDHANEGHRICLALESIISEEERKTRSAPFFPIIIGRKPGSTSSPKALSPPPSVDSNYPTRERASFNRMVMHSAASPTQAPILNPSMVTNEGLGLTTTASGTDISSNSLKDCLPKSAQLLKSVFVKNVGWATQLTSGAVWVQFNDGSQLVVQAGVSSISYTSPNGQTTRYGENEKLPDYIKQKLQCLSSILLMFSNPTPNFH

[26] = biological target: Protein kinase C delta type (Homo sapiens, UniProt Q05655); assay: PKCdelta(PRKDPFP1) Takeda global kinase panel
Chain of Protein kinase C delta type (Q05655 whole entry): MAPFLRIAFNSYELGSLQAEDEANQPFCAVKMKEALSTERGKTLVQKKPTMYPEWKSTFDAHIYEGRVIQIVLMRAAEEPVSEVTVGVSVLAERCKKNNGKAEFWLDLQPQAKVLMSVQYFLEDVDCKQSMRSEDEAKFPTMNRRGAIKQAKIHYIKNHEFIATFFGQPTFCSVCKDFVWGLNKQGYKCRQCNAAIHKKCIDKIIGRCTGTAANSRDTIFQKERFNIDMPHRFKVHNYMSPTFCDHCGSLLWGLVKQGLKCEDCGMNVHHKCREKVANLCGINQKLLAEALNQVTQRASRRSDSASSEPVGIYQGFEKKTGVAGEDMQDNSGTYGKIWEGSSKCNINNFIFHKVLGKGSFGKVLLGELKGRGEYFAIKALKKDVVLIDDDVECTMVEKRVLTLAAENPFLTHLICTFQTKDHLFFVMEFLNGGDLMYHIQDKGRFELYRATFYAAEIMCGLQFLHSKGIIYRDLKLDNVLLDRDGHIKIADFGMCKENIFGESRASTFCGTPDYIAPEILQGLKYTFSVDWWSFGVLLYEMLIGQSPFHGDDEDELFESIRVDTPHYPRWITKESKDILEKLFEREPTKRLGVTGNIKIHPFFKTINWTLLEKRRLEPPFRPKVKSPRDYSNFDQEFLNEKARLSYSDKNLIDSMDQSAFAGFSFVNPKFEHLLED

[27] = biological target: Protein kinase C theta type (Homo sapiens, UniProt Q04759); assay: PKCtheta(PRKQLGM5) Takeda global kinase panel
[28] = biological target: Rho-associated protein kinase 2 (Homo sapiens, UniProt O75116); assay: ROCK2(ROC2LGG1) Takeda global kinase panel
[29] = biological target: Proto-oncogene tyrosine-protein kinase ROS (Homo sapiens, UniProt P08922); assay: Ros(ROS1PHY1) Takeda global kinase panel
[30] = biological target: Serine/threonine-protein kinase SBK1 (Homo sapiens, UniProt Q52WX2); assay: SBK(SBK1LGY1) Takeda global kinase panel
Chain of Serine/threonine-protein kinase SBK1 (Q52WX2 whole entry): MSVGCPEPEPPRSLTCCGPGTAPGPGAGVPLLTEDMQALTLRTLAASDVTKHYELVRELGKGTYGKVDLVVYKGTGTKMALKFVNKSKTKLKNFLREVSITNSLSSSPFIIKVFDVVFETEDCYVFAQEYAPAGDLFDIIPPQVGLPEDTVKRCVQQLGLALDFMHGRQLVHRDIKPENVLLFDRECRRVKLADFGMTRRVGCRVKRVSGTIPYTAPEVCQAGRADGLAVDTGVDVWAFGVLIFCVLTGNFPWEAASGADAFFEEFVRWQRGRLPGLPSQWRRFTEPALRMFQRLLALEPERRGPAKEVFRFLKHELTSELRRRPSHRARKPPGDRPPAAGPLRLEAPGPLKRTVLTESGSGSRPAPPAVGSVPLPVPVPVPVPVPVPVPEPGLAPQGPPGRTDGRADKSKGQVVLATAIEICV

[31] = biological target: Serine/threonine-protein kinase 3 (Homo sapiens, UniProt Q13188); assay: MST2(STK3LGF1) Takeda global kinase panel
[32] = biological target: STE20-related kinase adapter protein alpha (Homo sapiens, UniProt Q7RTN6); assay: STLK5(STRAPHD1) Takeda global kinase panel
[33] = biological target: Serine/threonine-protein kinase TAO3 (Homo sapiens, UniProt Q9H2K8); assay: TAO3(TAO3LGY1) Takeda global kinase panel
[34] = biological target: Non-receptor tyrosine-protein kinase TNK1 (Homo sapiens, UniProt Q13470); assay: Tnk1(TNK1LGY1) Takeda global kinase panel
Chain of Non-receptor tyrosine-protein kinase TNK1 (Q13470 whole entry): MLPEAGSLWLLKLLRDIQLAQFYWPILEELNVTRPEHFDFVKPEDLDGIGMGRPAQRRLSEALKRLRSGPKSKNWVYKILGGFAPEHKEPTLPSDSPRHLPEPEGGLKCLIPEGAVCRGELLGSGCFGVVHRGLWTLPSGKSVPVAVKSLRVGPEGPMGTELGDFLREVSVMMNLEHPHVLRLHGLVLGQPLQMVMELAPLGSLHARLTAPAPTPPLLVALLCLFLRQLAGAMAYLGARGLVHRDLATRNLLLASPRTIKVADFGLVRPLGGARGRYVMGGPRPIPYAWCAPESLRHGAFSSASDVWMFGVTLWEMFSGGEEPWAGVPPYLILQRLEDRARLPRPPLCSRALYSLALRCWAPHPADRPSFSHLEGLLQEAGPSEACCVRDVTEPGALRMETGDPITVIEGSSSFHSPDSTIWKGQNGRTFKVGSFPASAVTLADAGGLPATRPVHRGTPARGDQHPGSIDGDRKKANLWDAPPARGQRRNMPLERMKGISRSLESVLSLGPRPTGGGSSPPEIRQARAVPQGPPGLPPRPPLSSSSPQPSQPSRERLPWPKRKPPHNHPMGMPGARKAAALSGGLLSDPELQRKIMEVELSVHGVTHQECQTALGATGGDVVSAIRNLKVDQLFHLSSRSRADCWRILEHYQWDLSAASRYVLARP

[35] = biological target: Serine/threonine-protein kinase ULK1 (Homo sapiens, UniProt O75385); assay: ULK1(ULK1LGF1) Takeda global kinase panel
[36] = biological target: D(1A) dopamine receptor (Homo sapiens) (UniProt P21728); settings: Compound concentration 10.0 uM
Chain of D(1A) dopamine receptor (Homo sapiens) (P21728 whole entry): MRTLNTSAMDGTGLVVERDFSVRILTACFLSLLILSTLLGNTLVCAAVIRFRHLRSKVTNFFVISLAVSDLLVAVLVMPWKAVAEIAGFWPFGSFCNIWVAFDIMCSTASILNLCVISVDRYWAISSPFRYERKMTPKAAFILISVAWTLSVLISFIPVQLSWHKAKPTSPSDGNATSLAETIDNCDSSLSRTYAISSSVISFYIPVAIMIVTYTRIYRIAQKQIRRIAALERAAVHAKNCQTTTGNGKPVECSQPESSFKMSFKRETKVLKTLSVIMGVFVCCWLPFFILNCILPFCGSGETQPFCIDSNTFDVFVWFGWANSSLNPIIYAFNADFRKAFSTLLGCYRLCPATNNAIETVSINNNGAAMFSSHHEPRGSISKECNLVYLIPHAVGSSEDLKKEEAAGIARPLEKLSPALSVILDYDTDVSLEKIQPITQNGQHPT

[37] = biological target: Endothelin-1 receptor (Homo sapiens) (UniProt P25101); settings: Compound concentration 10.0 uM
[38] = biological target: Muscarinic acetylcholine receptor M3 (Homo sapiens) (UniProt P20309); settings: Compound concentration 10.0 uM
[39] = biological target: MAP kinase-activated protein kinase 5 (Homo sapiens, UniProt Q8IW41); assay: MAPKAPK5(MPK5LGN1) Takeda global kinase panel
[40] = biological target: Ribosomal protein S6 kinase alpha-3 (Homo sapiens, UniProt P51812); assay: RSK2(R6A3CGE1) Takeda global kinase panel

CN1C(=O)[C@@H](N2CCc3cn(Cc4ccccc4)nc3C2=O)COc2ccccc21 [TP-030-1]
1000 nM: IC50 [2] | IC50 (Aurora kinase B) | IC50 [3] | IC50 [4] | IC50 [5] | IC50 [6] | IC50 [7] | IC50 [8] | IC50 [9] | IC50 [10] | IC50 [11] | IC50 [12] | IC50 (eIF-2-alpha kinase GCN2) | IC50 (Ephrin type-A receptor 3) | IC50 (Ephrin type-A receptor 6) | IC50 (Ephrin type-B receptor 1) | IC50 [13] | IC50 [14] | IC50 [15] | IC50 [16] | IC50 [17] | IC50 [18] | IC50 [19] | IC50 [20] | IC50 [21] | IC50 [22] | IC50 [23] | IC50 [24] | IC50 [25] | IC50 [26] | IC50 [27] | IC50 [28] | IC50 [29] | IC50 [30] | IC50 [31] | IC50 [32] | IC50 [33] | IC50 [34] | IC50 [35]
inactive: inhibition (Rattus norvegicus) -8% | inhibition [1] 3% | inhibition [36] -4% | inhibition [37] -5% | inhibition [38] 1%

CN1C(=O)[C@@H](N2CCc3cn(CC4CCS(=O)(=O)CC4)nc3C2=O)COc2ccccc21 [TP-030n]
inactive: inhibition (Rattus norvegicus) -9% | inhibition [1] 3% | inhibition [36] 7% | inhibition [38] -3%
1000 nM: IC50 [2] | IC50 (Aurora kinase B) | IC50 [3] | IC50 [4] | IC50 [5] | IC50 [6] | IC50 [7] | IC50 [8] | IC50 [9] | IC50 [10] | IC50 [11] | IC50 [12] | IC50 (eIF-2-alpha kinase GCN2) | IC50 (Ephrin type-A receptor 3) | IC50 (Ephrin type-A receptor 6) | IC50 (Ephrin type-B receptor 1) | IC50 [13] | IC50 [14] | IC50 [15] | IC50 [16] | IC50 [17] | IC50 [18] | IC50 [19] | IC50 [20] | IC50 [21] | IC50 [22] | IC50 [23] | IC50 [24] | IC50 [25] | IC50 [26] | IC50 [27] | IC50 [28] | IC50 [29] | IC50 [30] | IC50 [31] | IC50 [32] | IC50 [33] | IC50 [34] | IC50 [35] | IC50 [39] | IC50 [40]
